These results are taken from the NIST ThermoML archive (doi:10.1016/j.jct.2011.04.023).

Numbers after ± are expanded uncertainties.

For series [1] the following is noted: Crystal; visual observation.
Series [2] is described as follows: Molar enthalpy of transition or fusion. The settings on record: Crystal; DSC.

As to `CCCCCC[n+]1cccc(C)c1.Cc1ccc(S(=O)(=O)[O-])cc1` [1-hexyl-3-methylpyridinium 4-methylbenzenesulfonate], in series [1], the Normal melting temperature stood at 56.2 ± 0.4 °C. Besides, the “Molar enthalpy of transition or fusion” value in series [2] is 2.41 ± 0.0813 kcal/mol.
